Patent publication US4560758A, “Process for preparing pyrrolo[1,2-a]imidazoles and imidazo[1,2-a]pyridines” (Pennwalt Corporation, priority 1984, dated 1985)
Values joined by “and” are separate entries in the source; they are usually repeats but may differ in a detail not shown here. Equal entries are not always repeated. Structures can show the parent of a compound that is named as a salt.

Experiments:
[1] = test system: antibody secreting cells in the spleen; assay: Kennedy Plaque Assay (humoral immune system depressed by 6-mercaptopurine; number of plaques); type: in vivo; details: for change in vivo at 6.25 mg/kg: ip, 60 mg/Kg of 6 MP plus 6.25 mg/Kg (i.p.) of compound, read-out: Percent Restoration (+) or Suppression (-)
Procedure: In this assay, in which the in vitro model used was the Kennedy modification of the Jerne (or plaque) technique (J. C. Kennedy et al, Immunol., 20, p. 253 (1971)), the animal's humoral immune system is depressed artificially by the known immunosuppressant drug, 6-mercaptopurine (6-MP), and then the ability of a drug to either suppress it further or restore it towards normal is evaluated. The change in the number of plaques, which is a direct correlate of the change in the number of antibody secreting cells in the spleen, is used to measure this effect. For example, the compound of Example 11 results in greater than 100% restoration of the number of plaques and thus causes an immunoenhancement of the humoral system. In contrast, the compound of Example 28 results in about 24% further suppression of the number of plaques and thus behaves as an immunosuppressant.
of 6 MP plus 6.25 mg/Kg (i.p.)
^1 without 6MP treatment
^2 percent change from control (i.e., without 6MP)

[2] = test system: carrageenan-induced paw edemas; assay: Anti-inflammatory assay, carrageenan-induced paw edema; type: in vivo, Male, Sprague-Dawley rats
Procedure: The anti-inflammatory properties of various compounds of this invention were determined by carrageenan-induced paw edemas of test rats. Male, Sprague-Dawley rats (Blue Spruce Farm) were ordered at 125-140 g, housed for one week, and allowed food and water ad libitum. At the time of the experiments, only rats weighing 160-200 g were used.
All compounds were dissolved or suspended in a 0.5% water solution of Methocel and orally administered to groups of six rats each. Control rats received Methocel only. Two hours later (unless otherwise stated), paw edema was induced by subcutaneous injection into the plantar surface of the right hind paw of 0.1 ml of a 1.0% homogenized suspension of carrageenan.
Immediately, the volume of the paw was measured by immersing it in mercury to above the lateral mateolus. The mercury in a glass cylinder 25 mm in diameter and 60 mm deep was connected at the bottom on the cylinder by a column of water to a Statham transducer (model P23BB), range 0-5 cm of mercury pressure. The volume was recorded electronically on a Beckman recorder, R511. Three hours later, the inflamed paw volume was measured again, and the change in volume was recorded for each group. The percent inhibition of edema was calculated using the control group paw volume as 100% edema, i.e., as (the change in edema in the control group less the change in edema in the test group) times 100 divided by the change in edema in the control group.

mouse hepatitis virus = assay: Antiviral assay - hepatitis in mice; type: in vivo; details: once daily for 3 days; for Mean Liver Score: day 4, 0 (normal) to 4 (extreme discoloration); for Percent Survival: day 21
Procedure: Female mice weighing approximately 21-24 grams were inoculated with 0.1 ml of a mouse liver suspension containing mouse hepatitis virus, which liver suspension is at a dilution of 10^-5.5. Starting twenty-four hours post-virus inoculation, the animals were intraperitoneally ("i.p.") or orally administered the test compound(s) once daily for 3 days. On day 4, one third to one half of each group of mice were sacrificed and their liver removed for examination. Each liver was scored and assigned a number from 0 (normal liver) to 4 (extreme discoloration). The mean liver score per group was computed. The number of animals surviving until termination of the study (day 21) was also recorded. Anti-hepatitis activity is evidenced by increased survivor numbers and improved liver scores.

[3] = 50 mg/Kg p.o., dosed two hours before carrageenan

Clc1cccc(Cl)c1SC1CCCN2CC(c3ccccc3)N=C12 (stereo not drawn) [Example 20, 2,3,5,6,7,8-Hexahydro-2-phenyl-8-(2,6-dichlorophenylthio)imidazo[1,2-a]pyridine hydrochloride]
change in vivo at 6.25 mg/kg [1]: -49%
Percent Inhibition of carrageenan induced edema ([2]; 100 mg/Kg p.o., dosed two hours before carrageenan, hydrochloride): 33.3% and 39.6%

COC1(OC)CCCN2CC(c3ccccc3)N=C21 (stereo not drawn) [Example 23, 2,3,5,6,7,8-Hexahydro-2-phenyl-8,8-dimethoxyimidazo [1,2-a]pyridine hydrochloride]
change in vivo at 6.25 mg/kg [1]: 64%
Percent Inhibition of carrageenan induced edema ([2]; 50 mg/Kg p.o., 20 hrs. predosed): 32.1%
Percent Inhibition of carrageenan induced edema [2, 3]: -3.2%
Mean Liver Score (mouse hepatitis virus; 6.25 mg/Kg i.p., control 2.6): 1.7
Percent Survival (mouse hepatitis virus; 6.25 mg/Kg i.p., control 5%): 40%
Mean Liver Score (mouse hepatitis virus; 12.5 mg/Kg i.p., control 2.6 (Examples 11, 16, 23), 3.4 (25, 26)): 1.0
Percent Survival (mouse hepatitis virus; 12.5 mg/Kg i.p., control 5% (Examples 11, 16, 23), 6% (25, 26)): 70%
Mean Liver Score (mouse hepatitis virus; 25 mg/Kg i.p., control 2.6 (Examples 11, 23), 3.4 (25, 26)): 1.3
Percent Survival (mouse hepatitis virus; 25 mg/Kg i.p., control 5% (Examples 11, 23), 6% (25, 26)): 50%

CC(C)SC1CCCN2CC(c3ccccc3)N=C12 (stereo not drawn) [Example 18, 2,3,5,6,7,8-Hexahydro-2-phenyl-8-i-propylthioimidazo[1,2-a]pyridine sulfate]
change in vivo at 6.25 mg/kg [1]: 97%
Percent Inhibition of carrageenan induced edema [2, 3]: 40.4%

c1ccc(SC2(Sc3ccccc3)CCCN3CC(c4ccccc4)N=C32)cc1 (stereo not drawn) [Example 17, 2,3,5,6,7,8-Hexahydro-2-phenyl-8,8-di(phenylthio)imidazo[1,2-a]pyridine fumarate]
percent change from control (i.e., without 6MP) ([1]; without 6MP treatment, 6.25 mg/Kg (i.p.) of compound): -37%
Percent Inhibition of carrageenan induced edema [2, 3]: 38.6%
